Test results: US20250263496A1, “Neutrophil-Activating Therapy for the Treatment of Cancer” (The Board of Trustees of the Leland Stanford Junior …, priority 2024, published 2025)

How the values were obtained:
B16 cells = test: Mouse in vitro cytotoxicity (EuTDA), B16 cells co-cultured with neutrophils; assay type: cell-based; conditions: neutrophils from treated tumors stimulated with neutrophil-activating therapy
Procedure: B16 tumors were treated by intratumoral injection of TNF+anti-CD40+anti-gp75 and harvested 12 hours post-treatment. Tumors were dissected away from any surrounding fat, minced, and digested in 5 mg/ml collagenase IV (Worthington) plus 0.1 mg/ml DNase I (Sigma) with continuous mixing by magnetic stir bars for 20 minutes at 37° C. in RPMI-1640 (Gibco) with 2% FBS. Following digestion, tissue was mashed through a […] cell strainer (Falcon) and washed. For some studies, bone marrow was harvested by grinding bones from tumor-naive untreated mice in a mortar and pestle and mashing through a […] strainer (Falcon). Neutrophils were isolated from tumor and bone marrow samples with the MojoSort Mouse Ly6G Selection Kit (BioLegend), according to the manufacturer's instructions, and used in the cytotoxicity assay.
Cytotoxicity assays were conducted using the EuTDA assay from the DELFIA TRF cytotoxicity kit (PerkinElmer) according to the manufacturer's instructions. Briefly, B16 cells were labeled for 10 minutes with BATDA, and 5×10^3 labeled cells were added per well to a 96 well V-bottom plate in RPMI-1640. Neutrophils were added at a ratio of 10:1 unless otherwise stated. All co-cultures were conducted in the presence of TNF (10 ng/ml), anti-CD40 (1 μg/ml), anti-gp75 (1 μg/ml), and 10% active mouse C57BL/6 complement serum (Innovative Research), except where indicated otherwise. Mouse C57BL/6 complement serum was heat-inactivated for 40 minutes at 57° C. where inactivation is specified. In some experiments, mouse IgG2a isotype control (1 μg/ml, isotype control for anti-gp75, clone C1.18.4, Bio X Cell), anti-mouse CD16/CD32 (10 μg/ml, clone 2.4G2, Bio X Cell), recombinant mouse C5a (50 nM, R&D Systems), anti-C5a (25 μg/ml, clone 295108, R&D Systems), rat IgG2a isotype control (25 μg/ml, isotype control for anti-C5a, clone 2A3, Bio X Cell), anti-C5AR1 (5 μg/ml, clone 20/70, BioLegend), rat IgG2b isotype control (5 μg/ml, isotype control for anti-C5AR1, clone LTF-2, Bio X Cell), SC57461A (10 μM, Cayman Chemical), CP-105696 (1 μM, Sigma), topiroxostat (10 μM, MedChem Express), or DMSO (vehicle for SC57461A, CP-105696, and topiroxostat) were added to the wells with the B16 and neutrophils. After 4 hours of co-culture at 37° C., supernatant was taken from the wells, Europium solution was added, and TDA released from lysed B16 cells was detected by […] on a Victor X4 fluorescence microplate reader (PerkinElmer). Percent maximal lysis was determined by calculating the specific release of TDA using the formula: (experimental release−spontaneous release)/(maximum release −spontaneous release), where spontaneous release was determined by wells containing no neutrophils and maximum release was determined by wells with lysis buffer added.
For trogocytosis studies investigating transfer of tumor-binding antibody, anti-gp75 labeled with AF647 (clone TA99, Novus Biologicals) was used in place of unlabeled anti-gp75. For studies investigating transfer of B16 cell membrane, DiD′ Solid (ThermoFisher Scientific) was reconstituted in DMSO at 10 mg/ml and diluted to a working solution of 5 μg/ml in serum-free DMEM. B16 cells were labeled in this solution for 20 minutes at 37° C. at 1×10^6 cells/ml. Labeled B16 was washed 3 times in warm media before being added to the co-culture wells with the neutrophils. Following co-culture, flow cytometry was used to identify DiD signal in neutrophils.

neutrophils = test: Flow cytometry of neutrophils in B16 tumors and blood; assay type: in vivo, mouse; conditions: agent given prior to neutrophil-activating therapy
Procedure: Tumors were digested with collagenase IV and DNase I as described above. Following digestion, tissue was mashed through a […] cell strainer (Falcon), washed, red blood cells were lysed with ACK buffer for 1 minute, and cells were washed again prior to antibody staining. Blood was harvested into PBS plus 20 mM EDTA by cardiac puncture or retro-orbital bleed, lysed in ACK buffer for 5 minutes, and washed prior to antibody staining. Bone marrow was harvested by grinding the femur and tibia in a mortar and pestle and mashing through a […] strainer (Falcon), or by flushing femurs with a syringe and needle, then lysed in ACK buffer for 5 minutes and washed prior to antibody staining. Spleens were harvested by mashing through a […] cell strainer (Falcon), then lysed in ACK buffer for 5 minutes and washed prior to antibody staining.
Live cells were stained with antibodies on ice for 20 minutes in FACS buffer (HBSS 1% BSA 5 mM EDTA) with Brilliant Stain Buffer Plus (BD). Following staining, cells were washed twice in FACS buffer and resuspended in 1 μg/ml DAPI plus AccuCount Fluorescent Particles (Spherotech) for absolute count determination. In some experiments, live cells were stained with Live/Dead Fixable Blue Stain (Invitrogen) in HBSS on ice for 20 minutes prior to antibody staining, and DAPI was not used. […]

Question: What does the source list for N#Cc1cc(-c2n[nH]c(-c3ccncc3)n2)ccn1 [topiroxostat]?
Answer: effect of agent on ex vivo killing of tumor cells by neutrophils (B16 cells): inhibited ex vivo tumor cell killing; effect of agent on treatment-induced neutrophil tumor infiltration (neutrophils): did not prevent neutrophil infiltration
